≈ marks a conversion by molar mass, not a printed value.
Columns and labels:
[1] = Inhibition of Hepatitis C virus NS3 protease; set-up: species or system Hepacivirus hominis
[2] = Permeability across apical to basolateral side in human Caco2 cells; type: ADME, cell-based; conditions: Caco-2, read-out: permeability
[3] = Half life in rat liver microsomes; type: ADME, Microsome
[4] = Half life in human liver microsomes; type: ADME, Microsome
[5] = Half life in dog liver microsomes; type: ADME, Canis lupus familiaris, Microsome
[6] = system: Hepatitis C virus; assay: Antiviral activity against Hepatitis C virus; type: functional, organism-based, Hepacivirus hominis
[7] = Half life in monkey liver microsomes; type: ADME, Macaca mulatta, Microsome; conditions: rhesus monkey
[8] = Permeability across basolateral to apical side in human Caco2 cells; type: ADME, cell-based; conditions: Caco-2, read-out: permeability
[9] = Volume of distribution at steady state in rat at 2 mg/kg, iv; type: ADME, organism-based; set-up: dose 2 mg/kg, route intravenous; conditions: in vivo, read-out: Vdss
[10] = Clearance in rat at 2 mg/kg, iv; type: ADME, organism-based; set-up: dose 2 mg/kg, route intravenous; conditions: in vivo
[11] = Bioavailability in rat at 2 mg/kg, […]; type: ADME, organism-based; conditions: in vivo
[12] = Half life in rat at 2 mg/kg, iv; type: ADME, organism-based; set-up: dose 2 mg/kg, route intravenous; conditions: in vivo
[13] = system: Rattus norvegicus; assay: Cmax in rat at 5 mg/kg, po; type: ADME, organism-based; set-up: dose 5 mg/kg, route oral; conditions: in vivo
[14] = system: Rattus norvegicus; assay: AUC (0 to infinity) in rat at 5 mg/kg, po; type: ADME, organism-based, Plasma; set-up: time infinity, dose 5 mg/kg, route oral; conditions: in vivo
[15] = Solubility of the compound at pH 7.2; type: physicochemical; conditions: buffer
[16] = Plasma concentration in rat at 5 mg/kg measured at 1 hr; type: ADME, organism-based; set-up: dose 5 mg/kg
[17] = system: Hepatitis C virus; assay: Antiviral activity against Hepatitis C virus genotype 1b infected in human Huh-9-13 cells by replicon assay; type: functional, organism-based, Hepacivirus hominis

Structure (SMILES)	IC50 [1] [nM]	Papp A→B [2] [×10⁻⁶ cm/s]	half-life [4] [h]	EC50 [6] [nM]	other results
C=C[C@@H]1C[C@]1(NC(=O)[C@@H]1C[C@@H](Oc2cc(-c3csc(NC(C)=O)n3)nc3cc(OC)ccc23)CN1C(=O)[C@@H](NC(=O)OC(C)(C)C)C(C)(C)C)C(=O)O	13	–	–	–	–
C=C[C@@H]1C[C@]1(NC(=O)[C@@H]1C[C@@H](Oc2cc(-c3csc(NC(C)=O)n3)nc3cc(OC)ccc23)CN1C(=O)[C@@H](OC(=O)NC(C)(C)C)C(C)(C)C)C(=O)O	140	–	–	–	–
C=C[C@@H]1C[C@]1(NC(=O)[C@@H]1C[C@@H](Oc2cc(-c3csc(NC(C)=O)n3)nc3cc(OC)ccc23)CN1C(=O)[C@@H](CC(=O)NC(C)(C)C)C(C)(C)C)C(=O)O	53	–	–	–	–
C=C[C@@H]1C[C@]1(NC(=O)[C@@H]1C[C@@H](Oc2cc(-c3csc(NC(C)=O)n3)nc3cc(OC)ccc23)CN1C(=O)[C@@H](CC(=O)NC1CCCC1)C(C)(C)C)C(=O)O	23	–	–	–	–
C=C[C@@H]1C[C@]1(NC(=O)[C@@H]1C[C@@H](Oc2cc(-c3csc(NC(C)=O)n3)nc3cc(OC)ccc23)CN1C(=O)[C@@H](CC(=O)Nc1ccccc1)C(C)(C)C)C(=O)O	13	–	–	–	–
C=C[C@@H]1C[C@]1(NC(=O)[C@@H]1C[C@@H](Oc2cc(-c3csc(NC(C)C)n3)nc3c(Br)c(OC)ccc23)CN1C(=O)[C@@H](NC(=O)OC1CCCC1)C(C)(C)C)C(=O)O	8.9	17	> 5	6.8	half-life [3]: 3.5 h; half-life [5]: > 5 h; half-life [7]: 3.17 h; Papp B→A [8]: 2 ×10⁻⁶ cm/s
C=C[C@@H]1C[C@]1(NC(=O)[C@@H]1C[C@@H](Oc2cc(-c3csc(NC(C)C)n3)nc3c(Br)c(OC)ccc23)CN1C(=O)[C@@H](CC(=O)NC1CCCC1)C(C)(C)C)C(=O)O	10	8	3.45	3.5	Vd [9]: 1.3 L/kg; half-life [3]: 3.13 h; clearance [10]: 22 mL/min/kg; bioavailability [11]: 47%; half-life [5]: 2.55 h; half-life [7]: 0.867 h; half-life [12]: 1.4 h; Cmax [13]: 850 nM; AUC [14]: 2.1 µM·h; Papp B→A [8]: 10 ×10⁻⁶ cm/s
C=C[C@@H]1C[C@]1(NC(=O)[C@@H]1C[C@@H](Oc2cc(-c3ccccc3)nc3cc(OC)ccc23)CN1C(=O)[C@@H](CC(=O)N1CCCCC1)C(C)(C)C)C(=O)NS(=O)(=O)C1CC1 [SOVAPREVIR]	–	–	–	–	EC50 [17]: 11 nM

Continued by falling IC50 [1], values first:

IC50 [1] [nM]	Papp A→B [2] [×10⁻⁶ cm/s]	half-life [4] [h]	EC50 [6] [nM]	Structure (SMILES)	other results
8.7	–	–	130	C=C[C@@H]1C[C@]1(NC(=O)[C@@H]1C[C@@H](Oc2nccc3cc(OC)ccc23)CN1C(=O)[C@@H](CC(=O)NC(C)(C)C)C(C)(C)C)C(=O)NS(=O)(=O)C1CC1	–
2.6	–	–	–	C=C[C@@H]1C[C@]1(NC(=O)[C@@H]1C[C@@H](Oc2cc(-c3csc(NC(C)=O)n3)nc3cc(OC)ccc23)CN1C(=O)[C@@H](NC(=O)NC(C)(C)C)C(C)(C)C)C(=O)O	–
2	–	–	3	C=C[C@@H]1C[C@]1(NC(=O)[C@@H]1C[C@@H](Oc2nccc3cc(OC)ccc23)CN1C(=O)[C@@H](NC(=O)OC(C)(C)C)C(C)(C)C)C(=O)NS(=O)(=O)C1CC1	–
1.7	–	–	64	C=C[C@@H]1C[C@]1(NC(=O)[C@@H]1C[C@@H](Oc2nccc3cc(OC)ccc23)CN1C(=O)[C@@H](CC(=O)Nc1ccccc1)C(C)(C)C)C(=O)NS(=O)(=O)C1CC1	–
0.9	3	1.58	69	C=C[C@@H]1C[C@]1(NC(=O)[C@@H]1C[C@@H](Oc2cc(OCC)nc3c(Cl)cccc23)CN1C(=O)[C@@H](CC(=O)NC(C)(C)C)C(C)(C)C)C(=O)NS(=O)(=O)C1CC1	solubility [15]: 144 mg/mL (≈ 189 mM)
0.8	7.1	> 5	8.4	C=C[C@@H]1C[C@]1(NC(=O)[C@@H]1C[C@@H](Oc2cc(OCC)nc3c(Br)c(OC)ccc23)CN1C(=O)[C@@H](CC(=O)NC(C)(C)C)C(C)(C)C)C(=O)NS(=O)(=O)C1CC1	solubility [15]: 83 mg/mL (≈ 99.4 mM)
0.8	3.9	> 5	6.5	C=C[C@@H]1C[C@]1(NC(=O)[C@@H]1C[C@@H](Oc2cc(OCC)nc3c(Cl)cccc23)CN1C(=O)[C@@H](CC(=O)Nc1ccccc1)C(C)(C)C)C(=O)NS(=O)(=O)C1CC1	half-life [3]: 2.67 h; solubility [15]: 56 mg/mL (≈ 71.8 mM)
0.4	2.4	1.52	2.5	C=C[C@@H]1C[C@]1(NC(=O)[C@@H]1C[C@@H](Oc2cc(OCC)nc3c(Br)c(OC)ccc23)CN1C(=O)[C@@H](CC(=O)Nc1ccccc1)C(C)(C)C)C(=O)NS(=O)(=O)C1CC1	half-life [3]: > 5 h; concentration at 1 h [16]: 100 nM; solubility [15]: 45 mg/mL (≈ 52.6 mM)

Source: ChEMBL document CHEMBL2401615, “Peptide backbone replacement of hepatitis C virus NS3 serine protease C-terminal cleavage product analogs: discovery of potent succinamide inhibitors” (Bioorg Med Chem Lett, 2013)
